From patent US20020028809A1 (SUNTORY LIMITED, priority 1999, published 2002)
Read-outs that look alike come from different tables or passages of the source.

Columns and labels:
[1] = biological target: T1, α4β2 subtype of nicotinic acetylcholine receptors (Rattus norvegicus, UniProt P09483+P12390); experiment: Binding assays at α4β2 subtype of nicotinic acetylcholine receptors ([3H]-cytisine, rat brain membrane)
T1 construct: examined using rat brain membrane obtained from whole homogenized brain; from tissue; host or cells: whole brain of Fischer-344 male rats, membrane pellet
T1 sequence (P09483 31-630): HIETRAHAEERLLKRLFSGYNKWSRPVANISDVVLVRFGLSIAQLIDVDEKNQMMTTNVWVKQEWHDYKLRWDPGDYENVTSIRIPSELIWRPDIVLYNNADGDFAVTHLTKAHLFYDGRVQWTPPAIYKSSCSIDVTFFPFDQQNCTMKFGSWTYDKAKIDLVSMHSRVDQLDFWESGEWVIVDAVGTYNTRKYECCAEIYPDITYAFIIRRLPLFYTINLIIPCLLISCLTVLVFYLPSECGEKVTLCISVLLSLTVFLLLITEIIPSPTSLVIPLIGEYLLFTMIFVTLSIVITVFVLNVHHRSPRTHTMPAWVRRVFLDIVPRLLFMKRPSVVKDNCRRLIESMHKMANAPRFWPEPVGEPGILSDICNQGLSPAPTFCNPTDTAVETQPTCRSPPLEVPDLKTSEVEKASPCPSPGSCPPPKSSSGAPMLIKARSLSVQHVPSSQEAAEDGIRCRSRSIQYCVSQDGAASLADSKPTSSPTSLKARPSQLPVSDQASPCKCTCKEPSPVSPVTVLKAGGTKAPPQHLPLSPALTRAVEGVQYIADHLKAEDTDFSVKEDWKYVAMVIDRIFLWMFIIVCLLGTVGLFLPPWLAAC
T1 sequence (P12390 25-500): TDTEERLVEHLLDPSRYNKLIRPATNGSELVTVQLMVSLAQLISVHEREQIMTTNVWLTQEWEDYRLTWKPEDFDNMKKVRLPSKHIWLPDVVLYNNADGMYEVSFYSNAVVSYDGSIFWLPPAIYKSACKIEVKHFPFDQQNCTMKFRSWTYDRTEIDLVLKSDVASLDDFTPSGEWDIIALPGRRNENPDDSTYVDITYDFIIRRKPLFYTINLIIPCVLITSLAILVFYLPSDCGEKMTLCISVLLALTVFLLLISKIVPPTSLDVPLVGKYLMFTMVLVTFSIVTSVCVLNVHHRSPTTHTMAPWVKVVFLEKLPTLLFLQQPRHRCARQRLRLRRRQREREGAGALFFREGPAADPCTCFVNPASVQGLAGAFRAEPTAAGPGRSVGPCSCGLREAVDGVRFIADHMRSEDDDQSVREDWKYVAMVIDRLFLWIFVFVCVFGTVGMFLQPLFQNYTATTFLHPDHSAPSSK

[2] = biological target: T2, α1β1γδ subtype of nicotinic acetylcholine receptors (Rattus norvegicus, UniProt P18916+P25108+P25109+P25110); experiment: Binding assays at α1β1γδ subtype of nicotinic acetylcholine receptors ([3H]-α-bungarotoxin, rat muscle extract); settings: for remaining activity at 100 µM / remaining activity at 1000 µM: read-out: control % of [3H]-α-Bgt binding
T2 construct: Native receptor, no construct: "Triton X100 (2% w/v) was added
T2 sequence (P25108 21-457): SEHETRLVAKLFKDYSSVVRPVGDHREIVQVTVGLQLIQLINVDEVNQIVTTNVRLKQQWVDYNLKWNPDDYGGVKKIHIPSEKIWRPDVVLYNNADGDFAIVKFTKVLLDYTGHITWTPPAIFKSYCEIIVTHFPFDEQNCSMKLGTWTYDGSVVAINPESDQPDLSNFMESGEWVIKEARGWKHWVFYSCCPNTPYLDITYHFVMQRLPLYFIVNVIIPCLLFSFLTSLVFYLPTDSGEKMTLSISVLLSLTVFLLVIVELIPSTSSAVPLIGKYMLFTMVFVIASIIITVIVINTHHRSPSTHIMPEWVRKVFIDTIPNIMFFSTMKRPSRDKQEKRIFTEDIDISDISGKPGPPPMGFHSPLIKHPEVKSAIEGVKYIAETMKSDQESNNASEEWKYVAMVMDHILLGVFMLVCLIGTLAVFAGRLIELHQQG
T2 sequence (P25110 22-517): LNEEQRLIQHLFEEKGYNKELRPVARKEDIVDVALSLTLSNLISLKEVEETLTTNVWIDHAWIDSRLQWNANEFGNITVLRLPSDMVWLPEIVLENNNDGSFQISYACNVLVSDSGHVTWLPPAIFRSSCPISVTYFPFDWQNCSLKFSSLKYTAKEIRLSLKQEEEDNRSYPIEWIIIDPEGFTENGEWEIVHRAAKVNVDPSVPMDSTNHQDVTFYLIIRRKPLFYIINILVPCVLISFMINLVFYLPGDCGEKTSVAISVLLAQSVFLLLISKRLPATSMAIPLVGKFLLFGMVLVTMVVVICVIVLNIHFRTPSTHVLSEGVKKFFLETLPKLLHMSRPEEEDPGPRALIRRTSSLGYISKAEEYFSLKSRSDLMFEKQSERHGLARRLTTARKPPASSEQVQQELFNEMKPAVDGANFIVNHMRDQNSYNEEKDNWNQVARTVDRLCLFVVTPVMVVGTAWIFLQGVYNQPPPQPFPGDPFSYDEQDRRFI
T2 sequence (P25109 24-501): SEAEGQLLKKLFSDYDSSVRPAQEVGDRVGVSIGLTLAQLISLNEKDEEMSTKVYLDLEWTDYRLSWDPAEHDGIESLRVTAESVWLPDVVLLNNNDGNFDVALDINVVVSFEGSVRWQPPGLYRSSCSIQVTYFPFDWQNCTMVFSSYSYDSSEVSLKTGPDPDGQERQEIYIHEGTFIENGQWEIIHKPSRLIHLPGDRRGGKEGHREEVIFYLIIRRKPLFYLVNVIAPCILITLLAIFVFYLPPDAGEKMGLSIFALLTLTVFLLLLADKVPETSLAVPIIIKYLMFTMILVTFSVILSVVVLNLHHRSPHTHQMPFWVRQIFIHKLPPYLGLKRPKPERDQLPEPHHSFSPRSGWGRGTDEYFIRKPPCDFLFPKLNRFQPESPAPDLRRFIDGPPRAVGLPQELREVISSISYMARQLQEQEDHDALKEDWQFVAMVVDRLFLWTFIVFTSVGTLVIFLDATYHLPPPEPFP

[3] = rat brain membrane, [3H]-cytisine (2 nM), read-out: Affinities for receptors Ki α4β2

## N=C1SCCN1Cc1ccc(Cl)nc1 [Compound 5, 3-(6-chloro-3-pyridyl)methyl-2-iminothiazolidine]
[1]; [3]
  Ki: 2.2 nM
[2]
  Ki: 7650 nM

## N=c1ccccn1Cc1ccc(Cl)nc1 [Compound 7, 1-(6-chloro-3-pyridyl)methyl-2-imino-1,2-dihydropyridine]
[1]; [3]
  Ki: 3.1 nM
[2]
  Ki: 71200 nM

## N=c1sccn1Cc1ccc(Cl)nc1 [Compound 8, 3-(6-chloro-3-pyridyl)methyl-2-imino-2,3-dihydrothiazole]
[1]; [3]
  Ki: 0.5 nM
[2]
  Ki: 10200 nM

## Nc1nccn1Cc1ccc(Cl)nc1 [Compound 9, 2-amino-1-(6-chloro-3-pyridyl)methylimidazole]
[1]; [3]
  Ki: 22.2 nM
[2]
  remaining activity at 100 µM: 86%
  remaining activity at 1000 µM: 49%

## N=c1sccn1Cc1ccc(Br)nc1 [Compound 11, 3-(6-bromo-3-pyridyl)methyl-2-imino-2,3-dihydrothiazole]
[1]
  Ki: 0.63 nM
[2]
  remaining activity at 100 µM: 13%
  remaining activity at 1000 µM: 5%

## N=c1sccn1Cc1ccc(F)nc1 [Compound 12, 3-(6-fluoro-3-pyridyl)methyl-2-imino-2,3-dihydrothiazole]
[1]
  Ki: 1.89 nM
[2]
  remaining activity at 100 µM: 20%
  remaining activity at 1000 µM: -2%

## N=C1NCCN1Cc1ccc(Cl)nc1 [Compound 13, 1-(6-Chloro-3-pyridyl)methyl-2-iminoimidazolidine]
[1]; [3]
  Ki: 4.6 nM
[2]
  remaining activity at 100 µM: 26%
  remaining activity at 1000 µM: 8%

## N=C1CCCN1Cc1ccc(Cl)nc1 [Compound 14, 1-(6-Chloro-3-pyridyl)methyl-2-iminopyrrolidine]
[1]; [3]
  Ki: 1.9 nM
[2]
  remaining activity at 100 µM: 14%
  remaining activity at 1000 µM: 0%

## N=C1SCCN1Cc1ccc(Cl)cc1 [Compound 31, 3-(4-chlorobenzyl)-2-iminothiazolidine]
[1]
  Ki: 93 nM
[2]
  remaining activity at 100 µM: 37%
  remaining activity at 1000 µM: 10%

## N=C1SCCN1Cc1ccnnc1 [Compound 33, 2-imino-3-(4-pyridazinyl)methylthiazolidine]
[1]
  Ki: 32 nM
[2]
  remaining activity at 100 µM: 15%
  remaining activity at 1000 µM: 1%

## N=C1SCCN1Cc1cnc(Cl)s1 [Compound 34, 3-(2-chloro-5-thiazolyl)methyl-2-iminothiazolidine]
[1]
  Ki: 4.9 nM
[2]
  remaining activity at 100 µM: 14%
  remaining activity at 1000 µM: -1%

## N=c1ccc(-c2ccccc2)nn1Cc1ccc(Cl)nc1 [Compound 44, 2-(6-chloro-3-pyridyl)methyl-3-imino-6-phenyl-2,3-dihydropyridazine]
[1]
  Ki: 64 nM
[2]
  remaining activity at 100 µM: 80%
  remaining activity at 1000 µM: 26%

## Nc1nccn1Cc1cccnc1 [Compound 55, 2-amino-i-(3-pyridyl)methylimidazole]
[1]; [3]
  Ki: 43 nM
[2]; rat muscle extract, [3H]-α-Bgt (1 nM), read-out: Affinities for receptors Ki α1β1γδ
  Ki: 66000 nM
